The series in a line: in vitro. The note with it: human, hela cells, % viability.

For `CCN(CC)C(=O)/C=C/c1ccc(C(C)C)cc1` [CBK149636], the viability (as a rule, a read-out of living cells in per cent, often relative to untreated cells) at 28.5 h, 10 µM stood at 93.1%.
Take `CC(C)CN1C(=S)N(Cc2ccc(-c3ccccn3)cc2)[C@H]2[C@H]3OC(=O)[C@H](C[C@H]3O)[C@H]21` [CBK288938]: the viability at 28.5 h, 10 µM is 113%.
In the case of `COc1cc(CNC(=O)NC(=O)C2CCN(C(C)C)CC2)cc(OC)c1OC` [CBK034800], the viability at 28.5 h, 10 µM was 82.9%.
For `CNC(=O)C1(Cc2ccc(-c3cccc(C)c3)cc2)CCN(C(=O)CC(C)C)CC1` [CBK285787] the value was 116%; for `Cn1ccc(C(=O)NC(Cc2cccs2)c2nccs2)n1` (stereo not drawn) [CBK285135], 91.4%; for `Cc1ccc2cc(CN3CCCC(N)CC3)c(N3CCOCC3)nc2c1` (stereo not drawn) [CBK307693], 83.5%.
`CS(=O)(=O)Nc1nccnc1OC1CCN(CCCO)CC1` [CBK084275]: the viability at 28.5 h, 10 µM amounted to 90.9%.
As to `CC(Oc1ccccc1F)C(=O)N1CCCCC1CN(C)C` (stereo not drawn) [CBK281544], the viability at 28.5 h, 10 µM worked out at 89.5%.
With `O=C(Cc1c[nH]c2ccccc12)Nc1cnc(-c2cccc(OC(F)(F)F)c2)c(-c2cccnc2)n1` [CBK036863], the viability at 28.5 h, 10 µM amounted to 108%.
For `Cc1ccc(-c2noc(CN3CCN(Cc4ccccc4)CC3)n2)cc1` [CBK267288] the value was 91.3%; for `O=C1COc2ccccc2C/C=C/CC2(CCCN(C(=O)Cn3ccnc3)C2)CN1` (stereo not drawn) [CBK292050], 107%; for `COCc1cccc(-c2nccnc2OC2CCCCC2)c1` [CBK106959], 87.5%.
Next, `CCc1ccc(OCc2nnc(SCC(=O)NCCCC(=O)O)n2CC(C)C)cc1` [CBK295321]: 101%; `Cc1ccc(C(=O)C(OC(=O)c2ccc(-c3nnc(-c4ccccc4)o3)cc2)c2ccccc2)cc1` (stereo not drawn) [CBK265177]: 82.7%.
Next, `Nc1cccc(-c2nccnc2NCCc2ccccn2)c1` [CBK037512]: 102%; `CN(C)CCN(C)c1nc(-c2ccc3c(c2)OCO3)cn2ccnc12` [CBK066381]: 110%.
With `CSc1nc(NC(=O)C2CCCO2)cc(N2CCNCC2)n1` (stereo not drawn) [CBK026740T], the viability at 28.5 h, 10 µM came out at 90.5%.
For `O=C(COc1nc2cc3c(nc2o1)CCC3)c1ccccc1` [CBK269407] the value was 75.5%; for `Cc1cc(NO)nc(-c2ccc(Br)cc2)n1` [CBK261713], 97.6%; for `Clc1ccc(SCCOCCN2CCCCC2)cc1` [CBK265108G], 87.3%.
Next, `COc1cccc(C(=O)N2CCOC(c3cc(C(=O)NCC(C)C)c4ccccc4n3)C2)c1` (stereo not drawn) [CBK285894]: 97.4%; `O=C(N/N=C\C=C\c1ccco1)c1ccc([N+](=O)[O-])cc1` [CBK261961]: 102%; `NC(=O)CSc1nnc(NC(=O)c2ccc(Cl)cc2Cl)s1` [CBK287627]: 86.4%.
Take `Cc1cccc(C(=O)Nc2nc3ccc(S(C)(=O)=O)cc3s2)c1` [CBK287323]: the viability at 28.5 h, 10 µM stood at 89.8%.
On to `Cc1ccc2[nH]c3c(c2c1)CCOC31CCN(Cc2ccccc2-c2ccccc2)CC1` [CBK039915], for which the viability at 28.5 h, 10 µM stood at 89.1%.
Next, `O=C(Nc1ccccc1C(=O)O)c1ccc(-c2ccc(Cl)cc2Cl)o1` [CBK078453]: 105%; `COc1ccc(NC(=O)N[C@H]2C[C@@H](c3nc(-c4ccc(OC)cc4)no3)N(C)C2)cc1` [CBK288862]: 102%.
For `Nc1ncc(-c2ccncc2)nc1NCCCN1CCOCC1` [CBK063631] the value was 98.9%; for `CN(C)C(=O)c1ccc(-c2ccc(OC3CCN(C(=O)CCc4cccnc4)CC3)nc2)cc1` [CBK155049], 93.3%.
Next, `C#CCn1ncc2c3sc(C)cc3n(CC)c2c1=O` [CBK284225]: 89.5%; `COc1ccc([C@@H]2CCN(C(=O)c3cc(F)cc(F)c3)C[C@H]2O)cc1` [CBK283757]: 97%.
With `Cc1noc2c1[C@H]1[C@H](O)[C@H](O)C[C@H]1C1(CCC1)N2` [CBK303266], the viability at 28.5 h, 10 µM was 111%.
For `CC1(CNC(=O)c2ccc(N3CCCCC3)cc2)COC1` [CBK281746], the viability at 28.5 h, 10 µM came out at 105%.
Next, `CC(C)C(=O)NC(C)c1nc(-c2ccncc2)n[nH]1` (stereo not drawn) [CBK104021]: 113%; `CN(C)CCNC(=O)c1cccc(-c2cncc(NCc3ccc4c(c3)OCO4)n2)c1` [CBK065361]: 110%; `COCC(C)NC(=O)Cn1c(-c2ccc(F)cc2)cc2cccnc21` (stereo not drawn) [CBK284863]: 113%.
Next, `O=C(C1=C(O)C(=O)N(CCCN2CCOCC2)C1c1ccc(Cl)c(Cl)c1)c1cccs1` (stereo not drawn) [CBK264565]: 104%; `O=C1CSC(c2ccc(F)cc2Cl)c2c[nH]nc2N1` (stereo not drawn) [CBK287935]: 91.4%.
`CC(=O)SCCC(=O)N1C(C)CCCC1C(=O)O` (stereo not drawn) [CBK261315]: the viability at 28.5 h, 10 µM is 93.1%.
For `COCCCN1C(=O)c2[nH]nc(-c3cc(C)c(C)cc3O)c2C1c1ccc(SC)cc1` (stereo not drawn) [CBK268884] the value was 89%; for `O=C(CSc1nc(-c2ccco2)cc(C(F)(F)F)n1)NCc1ccco1` [CBK266091], 95.1%.
For the compound `CC1CCCC(C)N1CC(O)COc1ccc(/N=C/c2ccccc2)cc1` (stereo not drawn) [CBK261764], the viability at 28.5 h, 10 µM amounted to 78.5%.
As to `Cc1noc(C)c1NC(=O)c1cnccn1` [CBK200390], the viability at 28.5 h, 10 µM came to 89.9%.
Next, `CC(=O)NC(C)(COc1nonc1C)COc1nonc1C` [CBK265955]: 90.3%.
Regarding `CC(=O)Oc1ccc2c(=O)c(C3NC(C(=O)O)Cc4c3[nH]c3ccccc43)coc2c1` (stereo not drawn) [CBK293948], the viability at 28.5 h, 10 µM was 120%.
`O=C(O)C(Cc1ccccc1)N1C(=O)c2cccc([N+](=O)[O-])c2C1=O` (stereo not drawn) [CBK115372]: the viability at 28.5 h, 10 µM is 95.8%.
With `O=[N+]([O-])c1cc2c(cc1CN1CCN(Cc3ccccc3)CC1)OCO2` [CBK261548], the viability at 28.5 h, 10 µM came to 94.7%.
With `O=C(Cc1c[nH]cn1)N1CCN(C(=O)c2ccco2)CC1` [CBK144448], the viability at 28.5 h, 10 µM was 91.9%.
For `CN1CCN(c2ccccc2NC(=O)c2ccc3ccccc3c2)CC1` [CBK268486] the value was 96.1%.
Regarding `O=C(NCc1ccncc1)c1csc2c(C(F)(F)F)cc(N3CCN(Cc4ccccc4)CC3)nc12` [CBK034294T], the viability at 28.5 h, 10 µM was 98.6%.
For `CCNC(=O)c1ccc(-n2cccn2)c(C#Cc2ccccn2)c1` [CBK283125] the value was 111%; for `COc1ccc(CCCC(=O)Nc2ccc(N3CCNCC3)c3ccccc23)cc1OC` [CBK028406T], 105%.
For `CC1CCC/C(=N\NC(=O)C2C3CCCCC32)C1` (stereo not drawn) [CBK025750] the value was 116%; for `CCOC(=O)Cn1c(CCC(=O)O)ccc1-c1ccc(F)cc1` [CBK265916], 97.8%; for `CC(C)(O)C#Cc1ccc(C(=O)NC(Cc2c[nH]c3ccccc23)C(=O)O)cc1` (stereo not drawn) [CBK267703], 96.5%.
Next, `CN1C[C@@H](NC(=O)Nc2ccccc2)C[C@H]1c1nc(-c2ccccc2)no1` [CBK288877]: 124%; `COc1ccc2ccccc2c1CN1CCN(C/C=C/c2ccccc2)CC1` [CBK261899]: 108%.

The values above are taken from PMC12040169 (PLOS Biology, 2025).
